Series [1] has as its target T1, Lipase (Thermomyces lanuginosus) (UniProt O59952).
T1 sequence (whole entry): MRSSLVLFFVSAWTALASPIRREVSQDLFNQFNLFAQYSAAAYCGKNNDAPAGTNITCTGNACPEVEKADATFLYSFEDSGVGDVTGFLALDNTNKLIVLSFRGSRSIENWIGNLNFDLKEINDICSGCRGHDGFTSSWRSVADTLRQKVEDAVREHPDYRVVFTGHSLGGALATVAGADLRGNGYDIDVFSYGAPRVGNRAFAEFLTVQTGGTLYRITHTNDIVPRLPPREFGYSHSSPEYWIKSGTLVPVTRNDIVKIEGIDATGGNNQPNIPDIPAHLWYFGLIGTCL
The experiment in a line: Activity of Thermomyces lanuginosus lipase using p-nitrophenylbutyrate as substrate by Lineweaver-Burk plot analysis.

The test system of series [2] is Chromobacterium viscosum. As to the kind of experiment: Activity of Chromobacterium viscosum lipase using p-nitrophenylbutyrate as substrate by Lineweaver-Burk plot analysis.
In series [3] the target is T2, Pancreatic triacylglycerol lipase (Sus scrofa) (UniProt P00591).
T2 sequence (whole entry): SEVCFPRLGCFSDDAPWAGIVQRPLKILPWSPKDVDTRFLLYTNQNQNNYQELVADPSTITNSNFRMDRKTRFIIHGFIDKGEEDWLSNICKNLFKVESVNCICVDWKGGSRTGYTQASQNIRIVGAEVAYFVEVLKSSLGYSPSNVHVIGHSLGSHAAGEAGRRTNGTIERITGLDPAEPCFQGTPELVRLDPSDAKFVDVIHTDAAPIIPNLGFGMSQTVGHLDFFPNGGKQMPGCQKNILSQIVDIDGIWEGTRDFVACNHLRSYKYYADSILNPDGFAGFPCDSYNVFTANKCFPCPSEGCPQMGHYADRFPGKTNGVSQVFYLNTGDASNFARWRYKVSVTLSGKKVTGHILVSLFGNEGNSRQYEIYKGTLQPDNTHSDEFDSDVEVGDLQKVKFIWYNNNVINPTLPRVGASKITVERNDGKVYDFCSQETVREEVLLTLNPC
As to the kind of experiment: Activity of porcine pancreatic lipase using p-nitrophenylbutyrate as substrate by Lineweaver-Burk plot analysis.

The target in series [4] is T3, Pancreatic triacylglycerol lipase (Homo sapiens) (UniProt P16233).
T3 sequence (whole entry): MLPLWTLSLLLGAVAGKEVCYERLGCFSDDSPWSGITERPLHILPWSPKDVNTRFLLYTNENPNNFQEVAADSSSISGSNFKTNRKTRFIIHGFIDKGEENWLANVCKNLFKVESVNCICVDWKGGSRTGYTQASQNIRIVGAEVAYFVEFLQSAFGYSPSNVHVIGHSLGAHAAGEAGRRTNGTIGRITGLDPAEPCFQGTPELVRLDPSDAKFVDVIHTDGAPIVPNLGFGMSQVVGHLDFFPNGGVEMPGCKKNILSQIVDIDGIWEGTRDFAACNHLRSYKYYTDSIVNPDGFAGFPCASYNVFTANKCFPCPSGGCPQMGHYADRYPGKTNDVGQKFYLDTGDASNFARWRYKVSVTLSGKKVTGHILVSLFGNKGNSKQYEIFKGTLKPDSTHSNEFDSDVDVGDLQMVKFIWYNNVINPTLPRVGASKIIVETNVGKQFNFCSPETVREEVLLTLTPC
The experiment in a line: Activity of human pancreatic lipase using p-nitrophenylbutyrate as substrate by Lineweaver-Burk plot analysis.

Series [5] is described as follows: Inhibition of Chromobacterium viscosum lipase using p-nitrophenylbutyrate as substrate by Dixon plot analysis.
Series [6] deals with T2, Pancreatic triacylglycerol lipase (Sus scrofa). The experiment in a line: (§1) Inhibition of porcine pancreatic lipase using p-nitrophenylbutyrate as substrate by Dixon plot analysis.
For series [7], the target named is T3, Pancreatic triacylglycerol lipase (Homo sapiens). The experiment in a line: (§2) Inhibition of human pancreatic lipase using p-nitrophenylbutyrate as substrate by Dixon plot analysis.
For series [8], the system named is Chromobacterium viscosum. The experiment in a line: Activity of Chromobacterium viscosum lipase using p-nitrophenylbutyrate as substrate by Lineweaver-Burk plot analysis relative to control.
Series [9] can be described thus: Discrimination ratio of Ki for Thermomyces lanuginosus lipase to Ki for Chromobacterium viscosum lipase.
The nature of series [10]: Discrimination ratio of Ki for porcine pancreatic lipase to Ki for Chromobacterium viscosum lipase.
Series [11] is described as follows: Discrimination ratio of Ki for human pancreatic lipase to Ki for Chromobacterium viscosum lipase.
Series [12] is described as follows: Solubility of the compound in buffer. The format is physicochemical.
The target of series [13] is T4, Pancreatic triacylglycerol lipase (Sus scrofa, UniProt P00591).
T4 sequence (P00591 whole entry): T2 sequence (whole entry)
The description is as §1.

Series [14] addresses T5, Pancreatic triacylglycerol lipase (Homo sapiens, UniProt P16233).
T5 sequence (P16233 whole entry): T3 sequence (whole entry)
Described as §2.

Series [15] deals with T1, Lipase (Thermomyces lanuginosus). As to the kind of experiment: Inhibition of Thermomyces lanuginosus lipase using p-nitrophenylbutyrate as substrate by Dixon pot analysis.

SMILES strings stand for the structures. Activity calls are given as the source filed them. The rule behind the calls is not given here. Some results are limits rather than exact numbers.

In general, Ki refers to a dissociation constant, usually derived from enzyme kinetics or from competition with a known ligand. High values mean lower affinity, low ones higher affinity. What is called Km is the concentration of substrate that gives half-maximal velocity.

`CCCC(=O)Oc1ccc(NC(=O)CCC(=O)N[C@@H](Cc2c[nH]c3ccccc23)C(=O)N[C@@H](Cc2ccc(O)cc2)C(N)=O)cc1`: the result (in [1]; in the series with Chromobacterium viscosum [2]; in series [3]; in [4]) was Active.
For the compound `CCCCOc1ccc(NC(=O)CCC(=O)N[C@@H](Cc2ccccc2)C(=O)N[C@@H](Cc2ccccc2)C(N)=O)cc1`, in series [5], the Ki worked out at 2.6 µM. Moreover, the inhibition entry in series [6] and in series [7] was “inactive” each time. The fold change (FC) in the series with Chromobacterium viscosum [8] was found to be 20. Moreover, the Ratio Ki in series [9] is 84; in series [10] it was 140; in series [11], 140.
In turn, `NC(=O)[C@H](Cc1ccccc1)NC(=O)[C@H](Cc1ccccc1)NC(=O)CCC(=O)Nc1ccc(O)cc1` had a Ki in [5] of 37 µM. Besides, the Ratio Ki in series [9], in series [10] and in series [11] was over 160 in each case.
For the compound `CCCCCCCCCCOc1ccc(NC(=O)CCC(=O)N[C@@H](Cc2ccccc2)C(=O)N[C@@H](Cc2ccccc2)C(N)=O)cc1`, in series [12], the solubility result was “Insoluble”.
For the compound `CCCC(=O)Oc1ccc(NC(=O)CCC(=O)N[C@@H](Cc2ccccc2)C(=O)N[C@@H](Cc2ccc(O)cc2)C(N)=O)cc1`, the outcome (in series [1]; with Chromobacterium viscosum [2]; in [3]; in [4]) was Active.
Take `CCCC(=O)Oc1ccc(NC(=O)CCC(=O)N[C@@H](Cc2c[nH]c3ccccc23)C(=O)N[C@@H](Cc2c[nH]c3ccccc23)C(N)=O)cc1`: the result (in series [1]; in the series on Chromobacterium viscosum [2]; in series [3]; in series [4]) was Active.
As for `CCCC(=O)Oc1ccc(NC(=O)CCC(=O)N[C@@H](Cc2ccccc2)C(=O)N[C@@H](Cc2c[nH]c3ccccc23)C(N)=O)cc1`, the outcome (in [1]; in the series with Chromobacterium viscosum [2]; in series [3]; in series [4]) was Active.
In the case of `CCCCOc1ccc(NC(=O)CCC(=O)N[C@@H](Cc2ccccc2)C(=O)N[C@@H](Cc2ccc(O)cc2)C(N)=O)cc1`, the inhibition result in [6] and in series [7] was “inactive” each time. Moreover, the figures for the Ki in series [13] and in series [14] were 160 µM and 550 µM, respectively. The solubility result in series [12] is listed as “soluble”.
As for `CCCCOc1ccc(NC(=O)CCC(=O)N[C@@H](Cc2ccc(O)cc2)C(=O)N[C@@H](Cc2ccccc2)C(N)=O)cc1`, the inhibition entry in series [6] and in series [7] was “inactive” throughout. Further, the results for the inhibitory constant (Ki) in [13] and in series [14] were 71 µM and 170 µM, respectively.
Regarding `CCCCCCCOc1ccc(NC(=O)CCC(=O)N[C@@H](Cc2ccccc2)C(=O)N[C@@H](Cc2ccccc2)C(N)=O)cc1`, the Ki in [5] worked out at 0.37 µM; in series [13], 39 µM. The solubility result in [12] is listed as “Insoluble”.
Regarding `CCCC(=O)Oc1ccc([N+](=O)[O-])cc1`, in the series on Chromobacterium viscosum [2], the Km worked out at 3500 µM.
On to `CCCC(=O)Oc1ccc(NC(=O)CCC(=O)N[C@@H](Cc2ccc(O)cc2)C(=O)N[C@@H](Cc2ccc(O)cc2)C(N)=O)cc1`, for which the result (in [1]; in the series with Chromobacterium viscosum [2]; in series [3]; in series [4]) was Active.
Consider `CCCC(=O)Oc1ccc(NC(=O)CCC(=O)N[C@@H](Cc2ccc(O)cc2)C(=O)N[C@@H](Cc2c[nH]c3ccccc23)C(N)=O)cc1`, for which the outcome (in series [1]; in the series on Chromobacterium viscosum [2]; in [3]; in [4]) was Active.
In the case of `CCCC(=O)Oc1ccc(NC(=O)CCC(=O)N[C@@H](Cc2ccccc2)C(=O)N[C@@H](Cc2ccccc2)C(N)=O)cc1`, the result (in [1]; in the series with Chromobacterium viscosum [2]; in [3]; in series [4]) was Active. Moreover, the Km in the series on Chromobacterium viscosum [2] was 180 µM. In addition, the inhibition result in series [15], in [6] and in [7] was “inactive” throughout. This compound yielded a Ki in [5] of 37 µM. In the series on Chromobacterium viscosum [8], this compound returned a fold change (FC) of 20. Besides, the Ratio Ki in series [9], in series [10] and in series [11] was over 160 throughout.
On to `CCCC(=O)Oc1ccc(NC(=O)CCC(=O)N[C@@H](Cc2ccc(O)cc2)C(=O)N[C@@H](Cc2ccccc2)C(N)=O)cc1`, for which the result (in series [1]; with Chromobacterium viscosum [2]; in series [3]; in series [4]) was Active.
As for `CCCC(=O)Oc1ccc(NC(=O)CCC(=O)N[C@@H](Cc2c[nH]c3ccccc23)C(=O)N[C@@H](Cc2ccccc2)C(N)=O)cc1`, the outcome (in series [1]; with Chromobacterium viscosum [2]; in [3]; in series [4]) was Active.

Values taken from ChEMBL document CHEMBL2021828, “An approach for differentiating isozymes. Construction of libraries containing short aromatic peptides as part of a method to design selective inhibitors against lipases” (Bioorg Med Chem Lett, 2012).
